# Like-named read-outs stand apart in the source and are kept apart here.
# Key:
# BRAF V600E = biological target: T1, BRAF V600E (Homo sapiens, UniProt P15056+Q96SW2, V600E); experiment: BRAF V600E HiBiT Degradation Assay; assay type: cell-based
# T1 construct: knock-in of the HiBiT tag to the endogenous BRAF V600E locus; host or cells: A375.10 (A375 clonal line, CRISPR HiBiT knock-in at the endogenous BRAF V600E locus)
# Outline: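 Endogenous HiBiT knock-in on BRAF V600E in A375 cells (clone A375.10); 11-point half-log series, top 10 μM, 2, 6 or 24 h at 37° C. Lytic HiBiT luminescence, background-subtracted, normalized to DMSO; 4-parameter fit gives DC50, Emax (residual protein) and IP (inflection point).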
# A375-NRAS^Q61K cells = experiment: CTGlo Cell Viability Assay, A375-NRAS^Q61K (A375.11) cells, 96 hours; assay type: cell-based, human; details: A375.11 (A375-NRAS^Q61K) cells; for Emax / CTGlo A375.11 96 hours Emax: lowest % viability achieved
# Outline: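 Viability as CellTiter-Glo ATP luminescence after 96 h compound exposure at 37 °C; A375.11 (BRAF V600E/NRAS Q61K) cells at 250/well, top final concentration 10 μM in half-log steps. Signal was background-corrected and set relative to DMSO controls. A 4-parameter logistic fit gave GI50 (50% crossing) and Emax.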
# [1] = A375.10 cells, BRAF V600E, 2 hours, inflection point, read-out: HiBiT-Degradation A375.10 BRAF 2 hours IP
# [2] = A375.10 cells, BRAF V600E, 2 hours, read-out: HiBiT-Degradation A375.10 BRAF 2 hours DC50
# [3] = A375.10 cells, BRAF V600E, 2 hours, residual protein remaining, read-out: HiBiT-Degradation A375.10 BRAF 2 hours Emax
# [4] = A375.10 cells, BRAF V600E, 2 hours, residual protein remaining
# [5] = A375.10 cells, HiBiT, BRAF V600E, 24 hours, read-out: HiBiT-Degradation A375.10 BRAF 24 hours DC50
# [6] = A375.10 cells, HiBiT, BRAF V600E, 24 hours, read-out: HiBiT-Degradation A375.10 BRAF 24 hours Emax
# [7] = A375.10 cells, HiBiT, BRAF V600E, 24 hours, read-out: HiBiT-Degradation A375.10 BRAF 24 hours IP
# [8] = A375.10 cells, BRAF V600E, 6 hours, inflection point, read-out: HiBiT-Degradation A375.10 BRAF 6 hours IP
# [9] = A375.10 cells, BRAF V600E, 6 hours, read-out: HiBiT-Degradation A375.10 BRAF 6 hours DC50
# [10] = A375.10 cells, BRAF V600E, 6 hours, residual protein remaining
# [11] = A375.10 cells, HiBiT, BRAF V600E, 24 hours
# T1 sequence (P15056 whole entry V600E): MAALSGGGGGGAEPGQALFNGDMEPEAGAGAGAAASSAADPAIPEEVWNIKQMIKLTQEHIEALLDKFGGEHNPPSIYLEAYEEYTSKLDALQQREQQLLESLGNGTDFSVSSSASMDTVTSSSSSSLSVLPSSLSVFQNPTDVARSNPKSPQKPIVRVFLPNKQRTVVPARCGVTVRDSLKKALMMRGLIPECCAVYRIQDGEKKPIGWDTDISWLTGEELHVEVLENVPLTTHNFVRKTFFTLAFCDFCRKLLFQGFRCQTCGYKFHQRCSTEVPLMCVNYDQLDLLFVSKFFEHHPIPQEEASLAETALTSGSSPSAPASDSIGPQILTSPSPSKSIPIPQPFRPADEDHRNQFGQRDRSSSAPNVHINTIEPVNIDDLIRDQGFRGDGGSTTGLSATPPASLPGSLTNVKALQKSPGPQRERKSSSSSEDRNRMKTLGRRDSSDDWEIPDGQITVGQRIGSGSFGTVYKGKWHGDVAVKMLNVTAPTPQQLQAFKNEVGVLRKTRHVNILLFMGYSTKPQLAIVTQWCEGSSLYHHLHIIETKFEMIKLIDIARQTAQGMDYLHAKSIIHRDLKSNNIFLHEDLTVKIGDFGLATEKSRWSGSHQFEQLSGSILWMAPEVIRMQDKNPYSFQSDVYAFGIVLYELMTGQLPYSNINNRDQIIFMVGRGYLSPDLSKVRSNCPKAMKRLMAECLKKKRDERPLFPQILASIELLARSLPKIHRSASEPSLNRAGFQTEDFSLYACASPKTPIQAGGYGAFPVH
# T1 sequence (Q96SW2 whole entry): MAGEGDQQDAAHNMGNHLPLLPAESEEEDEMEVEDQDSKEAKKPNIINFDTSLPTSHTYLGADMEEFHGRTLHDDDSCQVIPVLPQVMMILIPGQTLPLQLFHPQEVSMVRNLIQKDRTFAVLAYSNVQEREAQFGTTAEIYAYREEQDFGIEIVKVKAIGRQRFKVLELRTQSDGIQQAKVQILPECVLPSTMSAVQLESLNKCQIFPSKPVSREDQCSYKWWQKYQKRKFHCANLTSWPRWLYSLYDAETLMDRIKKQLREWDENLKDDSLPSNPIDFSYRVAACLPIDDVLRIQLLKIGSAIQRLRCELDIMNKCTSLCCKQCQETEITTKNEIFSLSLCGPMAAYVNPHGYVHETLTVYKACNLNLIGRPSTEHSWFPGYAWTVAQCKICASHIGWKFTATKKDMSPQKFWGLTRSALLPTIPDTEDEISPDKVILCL
# T1 sequence (Q16531 whole entry partner): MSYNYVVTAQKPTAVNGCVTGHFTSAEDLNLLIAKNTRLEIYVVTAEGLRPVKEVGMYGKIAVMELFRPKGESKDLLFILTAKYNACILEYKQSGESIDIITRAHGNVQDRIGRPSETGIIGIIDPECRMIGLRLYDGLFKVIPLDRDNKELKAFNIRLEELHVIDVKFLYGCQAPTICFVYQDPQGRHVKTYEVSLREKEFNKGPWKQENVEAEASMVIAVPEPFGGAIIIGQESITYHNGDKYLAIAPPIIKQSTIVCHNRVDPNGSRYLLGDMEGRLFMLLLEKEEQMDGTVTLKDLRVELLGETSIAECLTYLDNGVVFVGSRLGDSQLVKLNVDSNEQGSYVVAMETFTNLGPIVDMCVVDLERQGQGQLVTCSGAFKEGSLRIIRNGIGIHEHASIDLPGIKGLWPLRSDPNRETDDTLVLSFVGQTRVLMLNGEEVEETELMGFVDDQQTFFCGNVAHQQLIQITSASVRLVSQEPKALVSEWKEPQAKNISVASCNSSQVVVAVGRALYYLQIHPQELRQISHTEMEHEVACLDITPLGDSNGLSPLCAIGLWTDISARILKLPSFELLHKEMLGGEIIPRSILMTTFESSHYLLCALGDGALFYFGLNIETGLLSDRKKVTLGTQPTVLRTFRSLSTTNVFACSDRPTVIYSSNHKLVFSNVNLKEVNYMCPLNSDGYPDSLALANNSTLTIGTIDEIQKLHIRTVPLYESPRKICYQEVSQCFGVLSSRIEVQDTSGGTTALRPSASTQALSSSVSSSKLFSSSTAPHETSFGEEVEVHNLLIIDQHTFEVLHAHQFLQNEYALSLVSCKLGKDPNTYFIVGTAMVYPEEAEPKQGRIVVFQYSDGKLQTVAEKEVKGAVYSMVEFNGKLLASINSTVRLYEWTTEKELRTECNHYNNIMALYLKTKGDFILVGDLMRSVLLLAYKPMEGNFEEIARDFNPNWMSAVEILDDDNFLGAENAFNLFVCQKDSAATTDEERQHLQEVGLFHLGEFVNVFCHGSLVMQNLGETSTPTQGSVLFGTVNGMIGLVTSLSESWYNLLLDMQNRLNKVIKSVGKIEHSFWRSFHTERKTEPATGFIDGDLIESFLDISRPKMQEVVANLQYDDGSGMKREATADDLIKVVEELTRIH
Structure (SMILES),DC50 (BRAF V600E; [1]) [µM],DC50 (BRAF V600E; [2]) [µM],Emax (BRAF V600E; [3]) [%],GI50 (A375-NRAS^Q61K cells) [µM],"Emax (A375-NRAS^Q61K cells; Homo sapiens, 96 h) [%]",HiBiT-Degradation A375.10 BRAF 2 hours Emax (BRAF V600E; [4]),DC50 (BRAF V600E; [5]) [µM],Emax (BRAF V600E; [6]) [%],DC50 (BRAF V600E; [7]) [µM],CTGlo A375.11 96 hours Emax (A375-NRAS^Q61K cells),"GI50 (A375-NRAS^Q61K cells; Homo sapiens, 96 h) [µM]","HiBiT-Degradation A375.10 BRAF 2 hours IP (BRAF V600E; A375.10 cells, BRAF V600E, 2 hours, inflection point)","DC50 (BRAF V600E; read-out: HiBiT-Degradation A375.10 BRAF 2 hours DC50, A375.10 cells, BRAF V600E, 2 hours) [µM]",HiBiT-Degradation A375.10 BRAF 2 hours Emax (BRAF V600E),DC50 (BRAF V600E; [8]) [µM],DC50 (BRAF V600E; [9]) [µM],HiBiT-Degradation A375.10 BRAF 6 hours Emax (BRAF V600E; [10]),HiBiT-Degradation A375.10 BRAF 24 hours Emax (BRAF V600E; [11])
"CCN(C)S(=O)(=O)Nc1ccc(F)c(Oc2ccc3ncc(CCC4CCN(C5CCC(c6ccc(NC7CCC(=O)NC7=O)cc6F)CC5)CC4)nc3c2)c1C#N (single isomer, unassigned) [Compound 131, 7-[2-cyano-3-[[ethyl(methyl)sulfamoyl]amino]-6-fluoro-phenoxy]-2-[2-[1-[4-[4-[(2,6-dioxo-3-piperidyl)amino]-2-fluoro-phenyl]cyclohexyl]-4-piperidyl]ethyl]quinoxaline]",< 1,> 10,50 to 90,> 10,50 to 90,–,–,–,–,–,–,–,–,–,–,–,–,–
"CCN(C)S(=O)(=O)Nc1ccc(F)c(Oc2ccc3ncn([C@H]4CO[C@]5(CCN(C6CCC(c7cc8c(cc7F)c(N7CCC(=O)NC7=O)nn8C)CC6)C5)C4)c(=O)c3c2)c1C#N (single isomer, unassigned) [Compound 289]",< 1,< 1,–,< 1,–,*** (<=50%),< 1,< 50,< 1,*** (<=50%),–,–,–,–,–,–,–,–
"CO[C@@H]1CCN(S(=O)(=O)Nc2ccc(F)c(Oc3ccc4ncc(C5CC6(CCN(C7CCC(c8cc9c(cc8F)c(N8CCC(=O)NC8=O)nn9C)CC7)CC6)C5)nc4c3)c2C#N)C1 (single isomer, unassigned) [Compound 284]",< 1,< 1,< 50,–,< 50,–,–,–,–,–,< 1,–,–,–,–,–,–,–
"CO[C@H]1CCN(S(=O)(=O)Nc2ccc(F)c(Oc3ccc4ncc(C5CC6(CCN(C7CCC(c8cc9c(cc8F)c(N8CCC(=O)NC8=O)nn9C)CC7)CC6)C5)nc4c3)c2C#N)C1 (single isomer, unassigned) [Compound 276]",–,–,–,1 to 10,–,** (<90% and >50%),–,–,–,** (<90% and >50%),–,*** (<=1 μM),< 1,–,–,–,–,–
"CCN(C)S(=O)(=O)Nc1ccc(F)c(Oc2ccc3ncn([C@@H]4COC5(CCN(C6CCC(c7cc8c(cc7F)c(N7CCC(=O)NC7=O)nn8C)CC6)CC5)C4)c(=O)c3c2F)c1C#N (single isomer, unassigned) [Compound 47]",< 1,< 1,–,1 to 10,–,–,< 1,–,< 1,** (<90% and >50%),–,–,–,*** (<=50%),< 1,< 1,*** (<=50%),*** (<=50%)
"CN(CCO)S(=O)(=O)Nc1ccc(F)c(Oc2ccc3ncn(C4CC5(CCN(C6CC7(C6)CN(c6cc8c(cc6F)c(N6CCC(=O)NC6=O)nn8C)C7)CC5)C4)c(=O)c3c2)c1F (centres unmarked) [Compound 197, 6-[2,6-difluoro-3-[[2-hydroxyethyl(methyl)sulfamoyl]amino]phenoxy]-3-[7-[2-[3-(2,4-dioxohexahydropyrimidin-1-yl)-5-fluoro-1-methyl-indazol-6-yl]-2-azaspiro[3.3]heptan-6-yl]-7-azaspiro[3.5]nonan-2-yl]-4-oxo-quinazoline]",< 1,1 to 10,50 to 90,–,50 to 90,–,–,–,–,–,1 to 10,–,–,–,–,–,–,–
"CCN(C)S(=O)(=O)Nc1ccc(F)c(Oc2ccc3ncc(CCC4CCN(C5CCC(c6cc7c(cc6F)c(N6CCC(=O)NC6=O)nn7C)CC5)CC4)nc3c2)c1C#N (single isomer, unassigned) [Compound 129, 7-[2-cyano-3-[[ethyl(methyl)sulfamoyl]amino]-6-fluoro-phenoxy]-2-[2-[1-[4-[3-(2,4-dioxohexahydropyrimidin-1-yl)-5-fluoro-1-methyl-indazol-6-yl]cyclohexyl]-4-piperidyl]ethyl]quinoxaline]",< 1,< 1,–,1 to 10,–,** (<90% and >50%),–,–,–,** (<90% and >50%),–,–,–,–,–,–,–,–
"CCN(C)S(=O)(=O)Nc1ccc(F)c(Oc2ccc3ncc(CCC4CCN(C5CCC(c6ccc(NC7CCC(=O)NC7=O)cc6F)CC5)CC4)nc3c2)c1C#N (single isomer, unassigned) [Compound 132, 7-[2-cyano-3-[[ethyl(methyl)sulfamoyl]amino]-6-fluoro-phenoxy]-2-[2-[1-[4-[4-[(2,6-dioxo-3-piperidyl)amino]-2-fluoro-phenyl]cyclohexyl]-4-piperidyl]ethyl]quinoxaline]",< 1,< 1,–,< 1,–,*** (<=50%),–,–,–,** (<90% and >50%),–,–,–,–,–,–,–,–
"CN(CCO)S(=O)(=O)Nc1ccc(F)c(Oc2ccc3ncn(C4CC5(CCN(C6CCC(c7cc8c(cc7F)c(N7CCC(=O)NC7=O)nn8C)CC6)CC5)C4)c(=O)c3c2)c1C#N (single isomer, unassigned) [Compound 82, 6-[2-cyano-6-fluoro-3-[[2-hydroxyethyl(methyl)sulfamoyl]amino]phenoxy]-3-[7-[4-[3-(2,4-dioxohexahydropyrimidin-1-yl)-5-fluoro-1-methyl-indazol-6-yl]cyclohexyl]-7-azaspiro[3.5]nonan-2-yl]-4-oxo-quinazoline]",< 1,1 to 10,–,1 to 10,–,** (<90% and >50%),< 1,–,< 1,** (<90% and >50%),–,–,–,–,< 1,< 1,*** (<=50%),*** (<=50%)
"CCN(C)S(=O)(=O)Nc1ccc(F)c(Oc2ccc3ncc(C4CC5(CCN(C6CCC(c7cc8c(cc7F)c(N7CCC(=O)NC7=O)nn8C)CC6)CC5)C4)nc3c2)c1C#N (single isomer, unassigned) [Compound 181, 7-[2-cyano-3-[[ethyl(methyl)sulfamoyl]amino]-6-fluoro-phenoxy]-2-[7-[4-[3-(2,4-dioxohexahydropyrimidin-1-yl)-5-fluoro-1-methyl-indazol-6-yl]cyclohexyl]-7-azaspiro[3.5]nonan-2-yl]quinoxaline]",< 1,< 1,–,< 1,–,–,–,–,–,*** (<=50%),–,–,–,*** (<=50%),–,–,–,–
"CN(CCO)S(=O)(=O)Nc1ccc(F)c(Oc2ccc3ncc(C4CC5(CCN(C6CCC(c7cc8c(cc7F)c(N7CCC(=O)NC7=O)nn8C)CC6)CC5)C4)nc3c2)c1C#N (single isomer, unassigned) [Compound 294, 7-[2-cyano-6-fluoro-3-[[2-hydroxyethyl(methyl)sulfamoyl]amino]phenoxy]-2-[7-[4-[3-(2,4-dioxohexahydropyrimidin-1-yl)-5-fluoro-1-methyl-indazol-6-yl]cyclohexyl]-7-azaspiro[3.5]nonan-2-yl]quinoxaline]",< 1,< 1,50 to 90,–,–,–,–,–,–,** (<90% and >50%),1 to 10,–,–,–,–,–,–,–
"CCN(C)S(=O)(=O)Nc1ccc(F)c(C(=O)c2ccc3ncn(C4CC5(CCN(C6CC7(C6)CN(c6cc8c(cc6F)c(N6CCC(=O)NC6=O)nn8C)C7)CC5)C4)c(=O)c3c2)c1F (centres unmarked) [Compound 304, 3-[7-[2-[3-(2,4-dioxohexahydropyrimidin-1-yl)-5-fluoro-1-methyl-indazol-6-yl]-2-azaspiro[3.3]heptan-6-yl]-7-azaspiro[3.5]nonan-2-yl]-6-[3-[[ethyl(methyl)sulfamoyl]amino]-2,6-difluoro-benzoyl]-4-oxo-quinazoline]",< 1,1 to 10,50 to 90,–,50 to 90,–,< 1,< 50,< 1,–,1 to 10,–,–,–,–,–,–,–
"CCN(C)S(=O)(=O)Nc1ccc(F)c(Oc2ccc3ncn([C@H]4COC5(CCN(C6CC(c7ccc(NC8CCC(=O)NC8=O)cc7F)C6)CC5)C4)c(=O)c3c2)c1C#N (single isomer, unassigned) [Compound 63]",< 1,< 1,–,< 1,–,*** (<=50%),< 1,–,< 1,*** (<=50%),–,–,–,–,< 1,< 1,*** (<=50%),*** (<=50%)

# Reference: US20260297060A1, “COMPOUNDS FOR THE DEGRADATION OF MUTANT BRAF” (C4 THERAPEUTICS, INC., priority 2023, published 2026)
